5 molecules from US5703085A, “Xanthine derivatives” (Kyowa Hakko Kogyo Co., Ltd., priority 1994, dated 1997) can be followed below.

A short description of experiment [1]: Effect on clonidine-induced aggressive behavior. It counts as in vivo, male ddY mice. The conditions noted are these: po, clonidine 20 mg/kg ip; for Number of the Biting Attacks (mean ± S.E.M.), Test Compound-Treated Group: 30 min count. How it is done:
Effect on Clonidine-Induced Aggressive Behavior
The enhancement effect of the test compounds on the aggressive behavior induced by intraperitoneal administration of clonidine [Eur. J. Pharmacol., 29, 374 (1968)] was investigated.
The experiment was performed using several groups of male ddY mice weighing 20 to 25 g (Japan SLC), each group consisting of two mice. A test compound was suspended in injectable distilled water (manufactured by Otsuka Pharmaceutical Co., Ltd.) after adding Tween 80. Clonidine hydrochloride (manufactured by Sigma Co.) was dissolved in physiological saline solution (manufactured by Otsuka Pharmaceutical Co., Ltd.). The suspension containing the test compound and the suspension containing no test compound (control) were orally administered to the separate groups of the mice (0.1 ml per 10 g of body weight). Sixty minutes after the oral administration of the test compound, clonidine hydrochloride (20 mg/kg) was intraperitoneally administered. The number of biting attacks during the 30 minutes immediately after the clonidine treatment was counted. The effect of the compounds was evaluated by comparing the number of biting attacks of the test compound-administered groups with that of control groups (significance test: Student' t-test).

Another experiment has as its target T1, A2 Receptor (Rattus norvegicus, UniProt P30543).
T1 construct: from tissue; host or cells: rat corpus striatum (membrane suspension)
Nature of the experiment: Adenosine A2 receptor binding test (inhibition of 3H-CGS 21680 binding). As to conditions: rat corpus striatum, 3H-CGS 21680 4.0 nM. The procedure: Adenosine Receptor Antagonistic Activity (Adenosine A2 Receptor Binding Test)
The test was conducted according to the method of Bruns et al. [Mol. Pharmacol., 29, 331 (1986)] with slight modification.
Corpus striatum of a rat was suspended in ice-cooled 50 mM Tris (hydroxymethyl) aminomethane hydrochloride (Tris HCl) buffer (pH 7.7) by using Polytron homogenizer (manufactured by Kinematica Co.). The suspension was centrifuged (50,000×g, 10 minutes), and the precipitate was suspended again in the same amount of 50 mM Tris HCl buffer. The suspension was centrifuged under the same conditions, and the final precipitate was suspended in 50 mM Tris HCl buffer [containing 10 mM magnesium chloride and 0.02 unit/mg tissue of adenosine deaminase (manufactured by Sigma Co.)] to give a tissue concentration of 5 mg (wet weight)/ml.
To 1 ml of the tissue suspension thus prepared were added 50 μl of tritium labeled CGS 21680 {^3 H-2-[p-(2-carboxyethyl) phenethylamino]-5'-(N-ethylcarboxamide)-adenosine: 40 Ci/mmol; manufactured by New England Nuclear Co. [J. Pharmacol. Exp. Ther., 251, 888 (1989)]} (final concentration: 4.0 nM) and 50 μl of a test compound. The resulting mixture was allowed to stand at 25° C. for 120 minutes and then rapidly filtered by suction through a glass fiber filter (GF/C; manufactured by Whatman Co.). The filter was immediately washed three times with 5 ml each of ice-cooled 50 mM Tris HCl buffer, and transferred to a vial, and a scintillator (EX-H; manufactured by Wako Pure Chemical Industries, Ltd.) was added thereto. The radioactivity on the filter was determined with a liquid scintillation counter (manufactured by Packard Instrument Co.).
The inhibition rate of the test compound against the binding of A2 receptors (^3 H-CGS 21680 binding) was calculated by the following equation: [formula] [Notes]B: Amount of the binding in the presence of the test compound.
T: Amount of the total binding.
N: Amount of the nonspecific binding.
Amount of the total binding means the amount of radioactivity of ^3 H-CGS 21680 bound in the absence of the test compound. Amount of the nonspecific binding means the amount of radioactivity of ^3 H-CGS 21680 bound in the presence of 100 μM cyclopentyladenosine (CPA; manufactured by Sigma Co.). Amount of the binding in the presence of the test compound means the amount of radioactivity of ^3 H-CGS 21680 bound in the presence of the test compound at various levels of concentrations.

Experiment [2] is described as follows: Effect on haloperidol-induced catalepsy. It counts as in vivo, male ddY mice. As to conditions: 10 mg/kg po; for Total Score (catalepsy): 1 h after compound; for inhibition in vivo at 10 mg/kg: Mus musculus, 1 h, decrease in total score vs control group, read-out: Remission Rate (%). How it is done: Effect on Haloperidol-Induced Catalepsy
Parkinson's disease is a clinical syndrome caused by degeneration and cell death of nigrostriatal dopaminergic neurons. Administration of haloperidol (dopamine D1 /D2 antagonist) induces catalepsy resulting from the blockade of postsynaptic dopamine D2 receptors.
The experiment was carried out using several groups of 5-week-old male ddY mice (weighing 22 to 24 g, Japan SLC), each group consisting of 5 or 10 mice. Haloperidol (manufactured by Janssen Pharmaceutica) was suspended in 0.3% CMC and imtraperitoneally administered to each mouse at a dose of 1.0 mg/kg. A test compound was suspended in injectable distilled water (manufactured by Otsuka Pharmaceutical Co., Ltd.) after adding Tween 80 [polyoxyethylene (20) sorbitan monooleate]. L-DOPA (manufactured by Kyowa Hakko Kogyo Co., Ltd.) and benserazide hydrochloride (manufactured by Kyowa Hakko Kogyo Co., Ltd.) were suspended in 0.3% CMC. One hour after the intraperitoneal administration of haloperidol, the suspension containing the test compound or the suspension containing no test compound [injectable distilled water (manufactured by Otsuka Pharmaceutical Co., Ltd.) containing Tween 80; control] were orally administered to the separate groups of the mice (0.1 ml per 10 g of body weight). One hour after the administration of the test compound, the forelimbs of each mouse and subsequently the hindlimbs of the same mouse were placed on a 4.5 cm-high, 1.0 cm-wide bar and catalepsy was estimated. All of the test compounds were orally administered at a dose of 10 mg/kg, and L-DOPA (100 mg/kg) and benserazide (25 mg/kg) were intraperitoneally administered together as a control. The catalepsy score and the standard of judgment are shown below. […]
Score Duration of the category
0: forelimbs less than 5 seconds
hindlimbs less than 5 seconds
1: forelimbs from 5 (inclusive)
to 10 (exclusive) seconds
2: forelimbs 10 seconds or more
3: (1) forelimbs from 5 (inclusive)
hindlimbs from 5 (inclusive)
or (2) forelimbs less than 5 seconds
hindlimbs 5 seconds or more
4: (1) forelimbs 10 seconds or more
or (2) forelimbs from 5 (inclusive)
hindlimbs 10 seconds or more
5: forelimbs 10 seconds or more
The effect of the compounds was evaluated by the total of the catalepsy scores of 5 or 10 mice in each group (25 or 50 points at the maximum). The groups wherein the total score was not more than 20 or 40 points were estimated to be effective. The number of the animals showing remission against catalepsy is the number of the mice for which the catalepsy score was not more than 4 points in 5 or 10 mice.

Setting [3] is: out of 10 mice (score not more than 4).
Setting [4] is: 5 mice (max 25 points; control 25).
Setting [5] is: out of 5 mice (score not more than 4).

Read-outs that look alike come from different tables or passages of the source.

T1 sequence (P30543 whole entry): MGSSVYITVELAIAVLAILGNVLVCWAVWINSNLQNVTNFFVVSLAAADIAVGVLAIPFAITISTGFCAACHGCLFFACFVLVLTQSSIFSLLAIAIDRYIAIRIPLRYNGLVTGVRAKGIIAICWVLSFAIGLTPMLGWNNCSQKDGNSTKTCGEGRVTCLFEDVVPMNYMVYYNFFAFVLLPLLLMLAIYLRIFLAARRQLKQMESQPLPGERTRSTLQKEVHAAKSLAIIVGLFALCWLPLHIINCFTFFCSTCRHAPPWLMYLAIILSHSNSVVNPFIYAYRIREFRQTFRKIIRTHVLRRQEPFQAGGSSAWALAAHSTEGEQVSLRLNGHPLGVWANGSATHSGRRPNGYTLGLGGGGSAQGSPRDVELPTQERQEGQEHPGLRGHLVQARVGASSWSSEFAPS

With `CCn1c(=O)c2c(nc(/C=C/c3ccc(OC(C)=O)cc3)n2C)n(CC)c1=O` [Compound 14, (E)-8-(4-Acetoxystyryl)-1,3-diethyl-7-methylxanthine], in experiment [1] (0.63 mg/kg), the “Ratio of Attacks: Test Compd.-Treated Group/Control Group” value was determined as 4.1 and the “Number of the Biting Attacks (mean ± S.E.M.), Test Compound-Treated Group” value (“Number of the Biting Attacks” for short) is 21.4 ± 7.4. For the same molecule, on A2 Receptor (10^-6 M), the “A2 Receptor Inhibition Rate (%)” value was determined as 93%. Moreover, the “A2 Receptor Inhibition Rate (%)” value at A2 Receptor (10^-7 M) stood at 86%. For the same molecule, the “Total Score (catalepsy)” value in experiment [2] (10 mice (max 50 points)) was 11. Besides, the “Number of Animals Showing Remission” value in experiment [2] (setting [3]) was determined as 10. Further, the inhibition in vivo at 10 mg/kg in experiment [2] (10 mice) turned out to be 78%.
Consider `CCCn1c(=O)c2c(nc(/C=C/c3ccc(OC(=O)c4ccccc4)c(OC)c3)n2C)n(CCC)c1=O` [Compound 6, (E)-8-(4-Benzoyloxy-3-methoxystyryl)-7-methyl-1,3-dipropylxanthine], for which, in experiment [1] (10 mg/kg), the “Ratio of Attacks: Test Compd.-Treated Group/Control Group” value is recorded as 16.0 and the “Number of the Biting Attacks” value came out at 36.8 ± 10.8. Besides, on A2 Receptor (10^-6 M), the “A2 Receptor Inhibition Rate (%)” value came to 96%. In addition, the “A2 Receptor Inhibition Rate (%)” value on A2 Receptor (10^-7 M) was 81%. In addition, the “Total Score (catalepsy)” value in experiment [2] (setting [4]) was 9. For the same molecule, the “Number of Animals Showing Remission” value in experiment [2] (setting [5]) was determined as 5. In experiment [2] (5 mice), the inhibition in vivo at 10 mg/kg turned out to be 64%.
On to `CCn1c(=O)c2c(nc(/C=C/c3ccc(OC(C)=O)c(OC)c3)n2C)n(CC)c1=O` [Compound 5, (E)-8-(4-Acetoxy-3-methoxystyryl)-1,3-diethyl-7-methylxanthine], for which, in experiment [1] (0.63 mg/kg), the “Ratio of Attacks: Test Compd.-Treated Group/Control Group” value was determined as 4.9 and the “Number of the Biting Attacks” value came out at 19.1 ± 6.6. Also, at A2 Receptor (10^-6 M), the “A2 Receptor Inhibition Rate (%)” value is reported as 100%. For the same molecule, the “A2 Receptor Inhibition Rate (%)” value on A2 Receptor (10^-7 M) is 91%. Also, the “Total Score (catalepsy)” value in experiment [2] (setting [4]) turned out to be 2. In addition, the “Number of Animals Showing Remission” value in experiment [2] (setting [5]) came to 5. The inhibition in vivo at 10 mg/kg in experiment [2] (5 mice) was 92%.
With `CCCn1c(=O)c2c(nc(/C=C/c3ccc(OC(C)=O)c(OC)c3)n2C)n(CCC)c1=O` [Compound 4, (E)-8-(4-Acetoxy-3-methoxystyryl)-7-methyl-1,3-dipropylxanthine], in experiment [1] (2.5 mg/kg), the “Ratio of Attacks: Test Compd.-Treated Group/Control Group” value amounted to 11.0 and the “Number of the Biting Attacks” value was found to be 47.4 ± 11.1. The “A2 Receptor Inhibition Rate (%)” value on A2 Receptor (10^-6 M) was 98%. Further, the “A2 Receptor Inhibition Rate (%)” value at A2 Receptor (10^-7 M) stood at 94%. Further, the “Total Score (catalepsy)” value in experiment [2] (setting [4]) is on record as 3. Besides, in experiment [2] (setting [5]), the “Number of Animals Showing Remission” value is recorded as 5. Also, in experiment [2] (5 mice), the inhibition in vivo at 10 mg/kg came to 88%.
Take `CCC(=O)Oc1ccc(/C=C/c2nc3c(c(=O)n(CC)c(=O)n3CC)n2C)cc1OC` [Compound 12, (E)-1,3-Diethyl-8-(3-methoxy-4-propionyloxystyryl)-7-methylxanthine]: in experiment [1] (2.5 mg/kg), the “Ratio of Attacks: Test Compd.-Treated Group/Control Group” value amounted to 20.3 and the “Number of the Biting Attacks” value is 38.5 ± 8.4. The “A2 Receptor Inhibition Rate (%)” value at A2 Receptor (10^-6 M) is on record as 96%. The “A2 Receptor Inhibition Rate (%)” value on A2 Receptor (10^-7 M) is 86%. In experiment [2] (10 mice (max 50 points)), the “Total Score (catalepsy)” value is reported as 10. Besides, the “Number of Animals Showing Remission” value in experiment [2] (setting [3]) worked out at 10. Further, in experiment [2] (10 mice), the inhibition in vivo at 10 mg/kg turned out to be 80%.
